Source: ChEMBL document CHEMBL3991601, “The target landscape of clinical kinase drugs” (Science, 2017)
Activity calls are given as the source filed them.

Biological target: T1, General transcription and DNA repair factor IIH helicase subunit XPD (Homo sapiens, UniProt P18074)
T1 sequence (P18074 whole entry): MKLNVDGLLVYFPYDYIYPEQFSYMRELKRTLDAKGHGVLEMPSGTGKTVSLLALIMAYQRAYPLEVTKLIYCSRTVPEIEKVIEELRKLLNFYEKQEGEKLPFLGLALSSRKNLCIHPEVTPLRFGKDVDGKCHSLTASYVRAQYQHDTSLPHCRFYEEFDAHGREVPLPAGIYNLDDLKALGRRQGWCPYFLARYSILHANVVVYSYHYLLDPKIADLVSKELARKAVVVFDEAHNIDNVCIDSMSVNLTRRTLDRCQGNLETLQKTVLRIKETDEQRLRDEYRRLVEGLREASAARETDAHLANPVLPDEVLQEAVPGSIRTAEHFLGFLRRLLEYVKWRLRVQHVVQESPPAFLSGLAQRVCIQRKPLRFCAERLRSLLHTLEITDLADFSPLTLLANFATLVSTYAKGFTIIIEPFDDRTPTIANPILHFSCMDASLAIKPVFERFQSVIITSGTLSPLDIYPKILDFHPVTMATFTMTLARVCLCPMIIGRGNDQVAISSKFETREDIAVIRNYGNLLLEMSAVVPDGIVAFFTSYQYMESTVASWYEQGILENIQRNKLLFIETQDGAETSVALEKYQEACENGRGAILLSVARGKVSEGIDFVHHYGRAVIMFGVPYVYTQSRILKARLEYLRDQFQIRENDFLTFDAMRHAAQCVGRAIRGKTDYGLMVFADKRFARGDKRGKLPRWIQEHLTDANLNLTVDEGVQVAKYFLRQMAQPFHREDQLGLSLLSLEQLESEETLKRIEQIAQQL
Settings: read-out: Kd apparent; k-562, colo 205, sk-n-be(2) and mv-4-11
Note: in the data inactive means no Kd found up to 30 µM.

Row | SMILES | Kd
1 | CN1CCN(c2ccc3nc(-c4c(N)c5c(F)cccc5[nH]c4=O)[nH]c3c2)CC1 [DOVITINIB] | > 30 µM (inactive)
2 | COC(=O)N[C@@H](C)CNc1nccc(-c2cn(C(C)C)nc2-c2cc(Cl)cc(NS(C)(=O)=O)c2F)n1 [ENCORAFENIB] | > 30 µM (inactive)
3 | Cc1cc(Nc2cc(N3CCN(C)CC3)nc(/C=C/c3ccccc3)n2)n[nH]1 [ENMD-2076] | > 30 µM (inactive)
4 | CCn1c(-c2nonc2N)nc2c(C#CC(C)(C)O)ncc(OC[C@H]3CCCNC3)c21 [GSK-690693] | > 30 µM (inactive)
5 | Cc1cn(-c2cc(NC(=O)c3ccc(C)c(Nc4nccc(-c5cccnc5)n4)c3)cc(C(F)(F)F)c2)cn1 [NILOTINIB] | > 30 µM (inactive)

Biological target: Myosin light chain kinase, smooth muscle (Homo sapiens, UniProt Q15746)
Sequence (Q15746 whole entry): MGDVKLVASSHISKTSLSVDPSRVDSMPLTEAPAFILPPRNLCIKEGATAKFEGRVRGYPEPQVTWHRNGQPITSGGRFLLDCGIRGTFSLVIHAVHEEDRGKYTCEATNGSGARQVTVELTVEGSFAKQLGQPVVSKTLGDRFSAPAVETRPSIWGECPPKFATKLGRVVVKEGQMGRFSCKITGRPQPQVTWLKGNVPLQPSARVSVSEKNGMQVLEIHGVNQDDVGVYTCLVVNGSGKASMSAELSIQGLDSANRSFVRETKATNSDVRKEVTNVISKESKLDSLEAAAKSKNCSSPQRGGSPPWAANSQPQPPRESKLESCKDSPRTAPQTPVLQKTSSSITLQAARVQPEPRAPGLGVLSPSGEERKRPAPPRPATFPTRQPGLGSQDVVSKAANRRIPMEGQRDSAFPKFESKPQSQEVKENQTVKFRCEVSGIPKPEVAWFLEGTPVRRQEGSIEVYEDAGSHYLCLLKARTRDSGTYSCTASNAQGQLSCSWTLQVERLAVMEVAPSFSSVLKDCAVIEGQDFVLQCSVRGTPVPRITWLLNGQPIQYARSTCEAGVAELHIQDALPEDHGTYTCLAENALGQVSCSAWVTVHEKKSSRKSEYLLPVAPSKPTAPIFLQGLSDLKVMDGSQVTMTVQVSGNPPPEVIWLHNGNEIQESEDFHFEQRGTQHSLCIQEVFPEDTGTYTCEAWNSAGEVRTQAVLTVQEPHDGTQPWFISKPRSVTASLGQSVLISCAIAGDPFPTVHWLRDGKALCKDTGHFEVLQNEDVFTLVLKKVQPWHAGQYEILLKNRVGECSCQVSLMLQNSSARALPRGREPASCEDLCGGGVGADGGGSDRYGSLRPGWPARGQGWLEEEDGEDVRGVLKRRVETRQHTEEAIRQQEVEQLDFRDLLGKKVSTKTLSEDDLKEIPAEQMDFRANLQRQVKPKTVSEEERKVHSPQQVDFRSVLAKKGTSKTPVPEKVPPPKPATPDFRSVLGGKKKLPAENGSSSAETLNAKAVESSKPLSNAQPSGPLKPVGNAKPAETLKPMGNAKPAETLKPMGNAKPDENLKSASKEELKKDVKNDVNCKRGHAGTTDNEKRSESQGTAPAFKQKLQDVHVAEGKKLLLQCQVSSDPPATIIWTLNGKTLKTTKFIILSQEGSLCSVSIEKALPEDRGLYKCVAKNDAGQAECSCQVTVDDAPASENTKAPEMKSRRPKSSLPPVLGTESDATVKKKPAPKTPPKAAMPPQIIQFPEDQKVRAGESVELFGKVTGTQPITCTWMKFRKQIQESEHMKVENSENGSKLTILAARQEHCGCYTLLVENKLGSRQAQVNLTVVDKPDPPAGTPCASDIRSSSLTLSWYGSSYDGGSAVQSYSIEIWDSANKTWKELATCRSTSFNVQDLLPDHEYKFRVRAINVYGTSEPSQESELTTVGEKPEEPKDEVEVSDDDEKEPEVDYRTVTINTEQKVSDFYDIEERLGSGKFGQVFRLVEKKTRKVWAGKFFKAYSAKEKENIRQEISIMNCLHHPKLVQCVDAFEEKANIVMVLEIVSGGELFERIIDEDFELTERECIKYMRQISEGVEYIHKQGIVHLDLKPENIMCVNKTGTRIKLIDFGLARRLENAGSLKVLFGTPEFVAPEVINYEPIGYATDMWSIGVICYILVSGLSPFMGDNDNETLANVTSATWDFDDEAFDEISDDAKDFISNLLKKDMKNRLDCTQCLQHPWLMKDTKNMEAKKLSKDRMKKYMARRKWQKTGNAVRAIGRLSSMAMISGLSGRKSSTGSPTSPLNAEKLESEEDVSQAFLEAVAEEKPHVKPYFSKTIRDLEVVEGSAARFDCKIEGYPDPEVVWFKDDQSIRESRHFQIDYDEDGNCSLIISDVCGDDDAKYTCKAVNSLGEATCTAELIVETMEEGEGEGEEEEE
Settings: not given

Row | SMILES | Kd
6 | COC(=O)N[C@@H](C)CNc1nccc(-c2cn(C(C)C)nc2-c2cc(Cl)cc(NS(C)(=O)=O)c2F)n1 [ENCORAFENIB] | > 30 µM (inactive)
7 | Cc1cc(Nc2cc(N3CCN(C)CC3)nc(/C=C/c3ccccc3)n2)n[nH]1 [ENMD-2076] | > 30 µM (inactive)

Biological target: T2, Acyl-CoA dehydrogenase family member 11 (Homo sapiens, UniProt Q709F0)
T2 sequence (Q709F0 whole entry): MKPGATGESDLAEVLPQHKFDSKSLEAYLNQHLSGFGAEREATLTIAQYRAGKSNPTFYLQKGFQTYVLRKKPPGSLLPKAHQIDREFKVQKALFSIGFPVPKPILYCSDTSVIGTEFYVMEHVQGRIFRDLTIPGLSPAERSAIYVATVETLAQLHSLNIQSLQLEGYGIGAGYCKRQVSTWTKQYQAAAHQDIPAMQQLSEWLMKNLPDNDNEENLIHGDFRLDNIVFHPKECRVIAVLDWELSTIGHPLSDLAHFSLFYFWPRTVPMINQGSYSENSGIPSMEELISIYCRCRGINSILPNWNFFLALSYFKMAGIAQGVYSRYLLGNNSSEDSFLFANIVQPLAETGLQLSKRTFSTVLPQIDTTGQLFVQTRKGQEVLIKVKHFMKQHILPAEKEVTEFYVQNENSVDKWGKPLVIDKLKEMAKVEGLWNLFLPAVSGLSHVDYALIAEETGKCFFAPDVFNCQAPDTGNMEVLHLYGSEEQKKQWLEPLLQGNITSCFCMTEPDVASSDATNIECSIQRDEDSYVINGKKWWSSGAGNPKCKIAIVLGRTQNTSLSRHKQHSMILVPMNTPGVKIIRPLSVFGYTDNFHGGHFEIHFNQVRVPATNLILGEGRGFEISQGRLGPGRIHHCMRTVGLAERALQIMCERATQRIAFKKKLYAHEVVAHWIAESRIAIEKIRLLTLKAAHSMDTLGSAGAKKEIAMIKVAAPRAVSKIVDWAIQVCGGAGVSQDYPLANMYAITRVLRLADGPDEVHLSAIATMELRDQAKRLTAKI
Settings: not given

Row | SMILES | Kd
8 | CN1CCN(c2ccc3nc(-c4c(N)c5c(F)cccc5[nH]c4=O)[nH]c3c2)CC1 [DOVITINIB] | > 30 µM (inactive)
9 | COC(=O)N[C@@H](C)CNc1nccc(-c2cn(C(C)C)nc2-c2cc(Cl)cc(NS(C)(=O)=O)c2F)n1 [ENCORAFENIB] | > 30 µM (inactive)
10 | Cc1cc(Nc2cc(N3CCN(C)CC3)nc(/C=C/c3ccccc3)n2)n[nH]1 [ENMD-2076] | > 30 µM (inactive)
11 | Cc1cn(-c2cc(NC(=O)c3ccc(C)c(Nc4nccc(-c5cccnc5)n4)c3)cc(C(F)(F)F)c2)cn1 [NILOTINIB] | > 30 µM (inactive)

Biological target: Mitogen-activated protein kinase 1 (Homo sapiens, UniProt P28482)
Settings: not given

Row | SMILES | Kd
12 | COC(=O)N[C@@H](C)CNc1nccc(-c2cn(C(C)C)nc2-c2cc(Cl)cc(NS(C)(=O)=O)c2F)n1 [ENCORAFENIB] | > 30 µM (inactive)

Biological target: Bone morphogenetic protein receptor type-1B (Homo sapiens, UniProt O00238)
Sequence (O00238 whole entry): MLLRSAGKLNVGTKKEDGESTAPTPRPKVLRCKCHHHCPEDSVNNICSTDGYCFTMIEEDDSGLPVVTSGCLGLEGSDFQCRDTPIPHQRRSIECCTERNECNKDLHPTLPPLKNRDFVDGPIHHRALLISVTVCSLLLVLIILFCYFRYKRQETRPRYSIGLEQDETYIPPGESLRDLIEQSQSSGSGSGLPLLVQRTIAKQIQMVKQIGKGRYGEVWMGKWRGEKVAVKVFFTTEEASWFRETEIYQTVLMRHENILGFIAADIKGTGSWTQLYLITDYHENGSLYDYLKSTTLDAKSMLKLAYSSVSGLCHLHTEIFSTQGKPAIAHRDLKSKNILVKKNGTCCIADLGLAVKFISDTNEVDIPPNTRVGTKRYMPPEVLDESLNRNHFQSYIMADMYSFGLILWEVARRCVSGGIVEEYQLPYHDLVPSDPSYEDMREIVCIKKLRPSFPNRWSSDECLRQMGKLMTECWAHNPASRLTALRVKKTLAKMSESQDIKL
Settings: not given

Row | SMILES | Kd
13 | COC(=O)N[C@@H](C)CNc1nccc(-c2cn(C(C)C)nc2-c2cc(Cl)cc(NS(C)(=O)=O)c2F)n1 [ENCORAFENIB] | > 30 µM (inactive)
14 | Cc1cc(Nc2cc(N3CCN(C)CC3)nc(/C=C/c3ccccc3)n2)n[nH]1 [ENMD-2076] | > 30 µM (inactive)

Biological target: RAC-gamma serine/threonine-protein kinase (Homo sapiens, UniProt Q9Y243)
Sequence (Q9Y243 whole entry): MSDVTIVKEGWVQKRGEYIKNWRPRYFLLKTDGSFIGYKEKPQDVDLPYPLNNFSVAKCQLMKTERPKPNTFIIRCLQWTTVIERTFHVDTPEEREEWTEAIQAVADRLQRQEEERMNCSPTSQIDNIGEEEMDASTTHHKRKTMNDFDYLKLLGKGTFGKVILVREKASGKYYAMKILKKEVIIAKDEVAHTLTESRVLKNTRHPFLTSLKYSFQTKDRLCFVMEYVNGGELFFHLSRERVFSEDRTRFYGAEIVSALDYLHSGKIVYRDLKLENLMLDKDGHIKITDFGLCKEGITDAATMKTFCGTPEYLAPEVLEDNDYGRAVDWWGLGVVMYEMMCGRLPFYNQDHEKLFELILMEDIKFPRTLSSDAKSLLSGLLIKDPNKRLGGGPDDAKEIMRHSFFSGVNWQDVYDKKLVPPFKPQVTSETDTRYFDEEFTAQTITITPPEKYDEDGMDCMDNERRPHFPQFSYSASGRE
Settings: not given

Row | SMILES | Kd
15 | COC(=O)N[C@@H](C)CNc1nccc(-c2cn(C(C)C)nc2-c2cc(Cl)cc(NS(C)(=O)=O)c2F)n1 [ENCORAFENIB] | > 30 µM (inactive)

Biological target: T3, ATP-dependent RNA helicase DDX1 (Homo sapiens, UniProt Q92499)
T3 sequence (Q92499 whole entry): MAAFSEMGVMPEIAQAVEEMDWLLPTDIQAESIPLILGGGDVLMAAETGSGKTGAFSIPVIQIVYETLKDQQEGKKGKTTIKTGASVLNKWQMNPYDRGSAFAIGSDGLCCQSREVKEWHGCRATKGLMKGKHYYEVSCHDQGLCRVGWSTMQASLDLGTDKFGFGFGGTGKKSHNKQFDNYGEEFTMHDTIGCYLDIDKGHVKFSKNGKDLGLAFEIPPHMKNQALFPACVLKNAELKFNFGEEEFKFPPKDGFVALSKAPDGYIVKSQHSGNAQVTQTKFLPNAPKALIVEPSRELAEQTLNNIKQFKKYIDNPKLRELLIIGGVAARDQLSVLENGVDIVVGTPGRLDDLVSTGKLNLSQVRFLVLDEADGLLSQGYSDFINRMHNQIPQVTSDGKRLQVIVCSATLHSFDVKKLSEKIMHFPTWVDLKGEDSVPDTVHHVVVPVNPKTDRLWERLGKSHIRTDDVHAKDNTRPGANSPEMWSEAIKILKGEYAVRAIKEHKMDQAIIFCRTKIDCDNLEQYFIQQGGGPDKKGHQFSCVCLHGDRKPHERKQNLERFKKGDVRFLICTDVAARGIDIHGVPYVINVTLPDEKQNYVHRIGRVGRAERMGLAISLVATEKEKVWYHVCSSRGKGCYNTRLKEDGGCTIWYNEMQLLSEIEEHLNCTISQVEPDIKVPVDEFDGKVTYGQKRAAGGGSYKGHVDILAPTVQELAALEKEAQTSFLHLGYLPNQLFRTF
Settings: not given

Row | SMILES | Kd
16 | CN1CCN(c2ccc3nc(-c4c(N)c5c(F)cccc5[nH]c4=O)[nH]c3c2)CC1 [DOVITINIB] | > 30 µM (inactive)
17 | COC(=O)N[C@@H](C)CNc1nccc(-c2cn(C(C)C)nc2-c2cc(Cl)cc(NS(C)(=O)=O)c2F)n1 [ENCORAFENIB] | > 30 µM (inactive)
18 | Cc1cc(Nc2cc(N3CCN(C)CC3)nc(/C=C/c3ccccc3)n2)n[nH]1 [ENMD-2076] | > 30 µM (inactive)
19 | CCn1c(-c2nonc2N)nc2c(C#CC(C)(C)O)ncc(OC[C@H]3CCCNC3)c21 [GSK-690693] | > 30 µM (inactive)
20 | Cc1cn(-c2cc(NC(=O)c3ccc(C)c(Nc4nccc(-c5cccnc5)n4)c3)cc(C(F)(F)F)c2)cn1 [NILOTINIB] | > 30 µM (inactive)

Biological target: U5 small nuclear ribonucleoprotein 200 kDa helicase (Homo sapiens, UniProt O75643)
Sequence (O75643 whole entry): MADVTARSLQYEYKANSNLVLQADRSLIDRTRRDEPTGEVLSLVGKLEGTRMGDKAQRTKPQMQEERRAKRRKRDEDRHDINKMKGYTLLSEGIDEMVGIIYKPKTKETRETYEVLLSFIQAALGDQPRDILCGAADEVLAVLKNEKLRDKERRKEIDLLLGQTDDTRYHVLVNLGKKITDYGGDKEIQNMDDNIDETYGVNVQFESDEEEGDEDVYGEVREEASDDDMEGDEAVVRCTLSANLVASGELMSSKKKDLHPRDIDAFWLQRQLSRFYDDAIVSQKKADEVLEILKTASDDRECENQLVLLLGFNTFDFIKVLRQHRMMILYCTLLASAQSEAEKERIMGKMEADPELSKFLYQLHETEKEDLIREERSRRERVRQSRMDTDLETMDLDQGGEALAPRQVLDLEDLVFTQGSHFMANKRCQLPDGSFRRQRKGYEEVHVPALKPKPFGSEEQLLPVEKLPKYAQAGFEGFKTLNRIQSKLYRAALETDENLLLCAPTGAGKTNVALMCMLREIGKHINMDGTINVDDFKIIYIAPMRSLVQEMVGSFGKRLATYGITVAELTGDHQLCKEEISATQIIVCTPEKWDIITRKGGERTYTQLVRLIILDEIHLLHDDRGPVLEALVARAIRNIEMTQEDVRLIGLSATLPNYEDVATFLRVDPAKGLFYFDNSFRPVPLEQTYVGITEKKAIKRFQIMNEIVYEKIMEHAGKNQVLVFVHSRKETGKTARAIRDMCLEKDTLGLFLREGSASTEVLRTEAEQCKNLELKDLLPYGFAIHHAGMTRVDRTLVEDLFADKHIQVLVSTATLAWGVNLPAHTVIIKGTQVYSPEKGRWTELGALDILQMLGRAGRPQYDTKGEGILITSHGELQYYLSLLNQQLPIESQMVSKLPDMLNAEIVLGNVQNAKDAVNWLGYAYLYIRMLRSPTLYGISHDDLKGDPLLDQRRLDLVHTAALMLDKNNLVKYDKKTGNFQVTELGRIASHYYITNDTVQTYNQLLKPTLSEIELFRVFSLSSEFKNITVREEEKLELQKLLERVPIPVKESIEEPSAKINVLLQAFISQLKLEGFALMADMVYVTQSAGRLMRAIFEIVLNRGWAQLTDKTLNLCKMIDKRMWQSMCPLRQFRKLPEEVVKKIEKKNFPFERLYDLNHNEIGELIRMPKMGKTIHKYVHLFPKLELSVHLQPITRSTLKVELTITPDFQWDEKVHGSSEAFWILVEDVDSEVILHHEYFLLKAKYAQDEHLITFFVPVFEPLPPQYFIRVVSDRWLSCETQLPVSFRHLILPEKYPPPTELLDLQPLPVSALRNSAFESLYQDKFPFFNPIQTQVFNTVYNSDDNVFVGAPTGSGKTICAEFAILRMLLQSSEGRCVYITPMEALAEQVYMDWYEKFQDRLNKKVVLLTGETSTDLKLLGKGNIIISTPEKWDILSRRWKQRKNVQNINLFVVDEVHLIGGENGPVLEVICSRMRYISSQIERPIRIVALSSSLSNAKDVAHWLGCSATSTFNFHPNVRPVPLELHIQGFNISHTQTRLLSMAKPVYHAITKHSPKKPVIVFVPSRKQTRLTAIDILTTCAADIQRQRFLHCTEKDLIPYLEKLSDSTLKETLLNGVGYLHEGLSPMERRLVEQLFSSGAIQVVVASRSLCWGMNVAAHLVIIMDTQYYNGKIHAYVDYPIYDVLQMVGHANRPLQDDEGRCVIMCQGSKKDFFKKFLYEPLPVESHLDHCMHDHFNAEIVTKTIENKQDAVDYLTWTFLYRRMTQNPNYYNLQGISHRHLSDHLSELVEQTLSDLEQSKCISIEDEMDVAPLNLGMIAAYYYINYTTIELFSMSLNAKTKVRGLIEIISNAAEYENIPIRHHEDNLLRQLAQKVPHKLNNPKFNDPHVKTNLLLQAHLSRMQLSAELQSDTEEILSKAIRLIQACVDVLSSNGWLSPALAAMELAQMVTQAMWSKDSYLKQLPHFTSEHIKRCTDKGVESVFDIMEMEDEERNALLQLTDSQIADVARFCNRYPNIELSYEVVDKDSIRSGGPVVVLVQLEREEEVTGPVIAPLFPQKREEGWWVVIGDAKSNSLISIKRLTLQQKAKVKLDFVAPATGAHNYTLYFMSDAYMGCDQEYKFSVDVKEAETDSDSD
Settings: not given

Row | SMILES | Kd
21 | CN1CCN(c2ccc3nc(-c4c(N)c5c(F)cccc5[nH]c4=O)[nH]c3c2)CC1 [DOVITINIB] | > 30 µM (inactive)
22 | COC(=O)N[C@@H](C)CNc1nccc(-c2cn(C(C)C)nc2-c2cc(Cl)cc(NS(C)(=O)=O)c2F)n1 [ENCORAFENIB] | > 30 µM (inactive)
23 | Cc1cc(Nc2cc(N3CCN(C)CC3)nc(/C=C/c3ccccc3)n2)n[nH]1 [ENMD-2076] | > 30 µM (inactive)
24 | CCn1c(-c2nonc2N)nc2c(C#CC(C)(C)O)ncc(OC[C@H]3CCCNC3)c21 [GSK-690693] | > 30 µM (inactive)
25 | Cc1cn(-c2cc(NC(=O)c3ccc(C)c(Nc4nccc(-c5cccnc5)n4)c3)cc(C(F)(F)F)c2)cn1 [NILOTINIB] | > 30 µM (inactive)
